Test results taken from patent US5047419A, “Photodynamic therapy of glioma or mammary carcinoma using seleno- or telluropyrylium salts” (Eastman Kodak Company, priority 1988, dated 1991).
Where two headings read alike, the source gives them in different places.

Assays:
[1] = test system: B-16 melanoma (mouse melanoma); assay: In vitro photodynamic therapy, B-16 cells; assay type: cell-based; conditions: Mus musculus
Procedure: (§1) Several selenopyrylium dyes and telluropyrylium dyes from Table I that generated singlet oxygen upon irradiation in air-saturated methanol were examined in vitro in mammalian cell cultures for their effectiveness as agents for photodynamic therapy. […] As controls, HSK1 (normal human skin fibroblasts) and CV-1 (normal monkey kidney cells) were used.
(§2) In vitro cell cultures were grown in antibiotic-free growth medium DMEM-F12 supplemented to 10% with fetal bovine serum and adjusted to 4.5 mM with L-glutamine. DMEM-F12 is a 1:1 mixture of Dulbecco's modified Eagle's medium (Gibco) and Ham's nutrient mixture F12 (Gibco). Prior to cell seeding, multi-well plates were blackened with spray paint, coating the external walls of each well to minimize light scattering from well to well. Subconfluent cell cultures were trypsinized and plated at a concentration of 10^5 cells per 2 cm^2 well. Cells were allowed to incubate overnight at 37° C. in a humidified atmosphere before dye and/or light exposure.
(§3) Stock solutions of the chalcogenopyrylium dyes were prepared at 1 mM concentration by sonication in 95% ethanol in the dark. These stock solutions were diluted with growth medium to the desired concentration. Dyes were protected from light throughout the entire experimental procedure until the time for irradiation. Standard treatment time for dye exposure was 1 hour. The dye containing medium was replaced with fresh growth medium prior to irradiation. Eighteen to twenty-four hours later, the remaining metabolically active cells were evaluated by the MTT colorimetric assay and/or cell counting. Assays were performed in triplicate with standard deviations generally of less than 10%. Percent kill was determined from mean optical density of the treated samples and that of the control (untreated) samples for the MTT analysis and from mean cell counts for these two groups for the cell-counting method. (See Table V).
(§4) Near-infrared and visible light from three sources were employed in these assays. Tungsten light (100-200 mW) was used to assess low milliwatt multiple wavelength effects. An argon-pumped dye laser (Model 150 Aurora, Cooper Lasersonics, Inc., Santa Clara, Calif.) with laser dye LDS 751 (Exciton Chemical Co., Inc., Dayton, Ohio) and a peak wavelength of 785±5 nm was coupled by a […] quartz fiberoptic to a microlens assembly that gave a uniform mode of distribution of light intensity. Thirdly, a laser diode (Model 2430-H2, Spectra Diode Laboratories, Inc., San Jose, Calif. with a fixed wavelength of 800±2 nm provided light energy in the near infrared. The diode was coupled by a 400 μm quartz fiberoptic with a clear and polished end. For laser irradiation experiments, the distance of the fiber tip from the well bottom was adjusted so that the laser irradiation exactly covered the 2 cm^2 target area. A distal power meter (Model 2000, Coherent, Inc., Auburn, Calif.) was used to determine the energy output of the laser source.

[2] = In vitro photodynamic therapy, B-16 cells; assay type: cell-based, mouse; conditions: mouse, b-16 melanoma cells, dark, read-out: % Surviving Fraction, Dark; for viability at 1 µM: B-16, 1 × 10^-6 M
Procedure: as §1, §2, §3, §4

[3] = Quantum efficiency of singlet oxygen generation in air-saturated solution; assay type: physicochemical; conditions: air-saturated solution
Excerpt: (§5) The ability of the dyes of this invention to function as a cancer-treating agent is in part a reflection of the ability of the dye to generate singlet oxygen in air-saturated solution. (As used herein, "air-saturated solution" means a solution of dye exposed to the atmosphere.) In studying a variety of chalcogenopyrylium dyes, only those dyes containing a selenium or tellurium atom show any appreciable generation of singlet oxygen upon irradiation. Fortuitously, selenopyrylium and telluropyrylium dyes have absorption maxima that are shifted to the red relative to their pyrylium and thiopyrylium analogues. That is, not only are these dyes effective in killing cancer cells because of their high quantum efficiency, but also they generally operate at the most preferred wavelengths, namely those of 700 nm or longer. Table III contains examples of chalcogenopyrylium dyes, their quantum efficiencies for singlet oxygen generation, and their absorption maxima. (In this Table, Ph=Phenyl, Me=Methyl, and t-Bu=tertiary butyl.)

[4] = In vitro photodynamic therapy, FADU cells; assay type: cell-based, human; conditions: human, fadu squamous cell carcinoma, FADU, dark, read-out: % Surviving Fraction, Dark; for viability at 1 µM: 1 × 10^-6 M
Procedure: as §1, §2, §3, §4

[5] = test system: FADU (human squamous cell carcinoma); assay: In vitro photodynamic therapy, FADU cells; assay type: cell-based; conditions: Homo sapiens, read-out: % Surviving Fraction, Light
Procedure: as §1, §2, §3, §4

[6] = Absorption maxima (λmax) of chalcogenopyrylium dyes; assay type: physicochemical
Excerpt: as §5

[7] = In vitro photodynamic treatment, control CV-1 cells; assay type: cell-based, monkey; conditions: monkey, cv-1 kidney cells, dark, read-out: % Surviving Fraction, Dark; for viability at 1 µM: CV1, 1 × 10^-6 M
Procedure: as §1, §2, §3, §4

[8] = test system: CV-1 (normal monkey kidney cells); assay: as above; assay type: cell-based; conditions: Primates
Procedure: as §1, §2, §3, §4

[9] = In vitro photodynamic treatment, control HSK1 cells; assay type: cell-based, human; conditions: human, hsk1 skin fibroblasts, dark, read-out: % Surviving Fraction, Dark; for viability at 0.1 µM: HSK1, 1 × 10^-7 M
Procedure: as §1, §2, §3, §4

[10] = test system: HSK1 (normal human skin fibroblasts); assay: as above; assay type: cell-based; conditions: Homo sapiens, Skin fibroblast, read-out: % Surviving Fraction, Light; for viability at 0.1 µM: HSK1, 1 × 10^-7 M
Procedure: as §1, §2, §3, §4

[11] = In vitro photodynamic therapy, U251 cells; assay type: cell-based, human; conditions: human, u251 glioma cells, dark, read-out: % Surviving Fraction, Dark; for viability at 1 µM: U251, 1 × 10^-6 M; for viability at 0.1 µM: U251, 1 × 10^-7 M
Procedure: as §1, §2, §3, §4

[12] = test system: U251 (human glioma); assay: In vitro photodynamic therapy, U251 cells; assay type: cell-based; conditions: Homo sapiens, U-251, read-out: % Surviving Fraction, Light; for viability at 1 µM: U251, 1 × 10^-6 M; for viability at 0.1 µM: U251, 1 × 10^-7 M
Procedure: as §1, §2, §3, §4

[13] = Stability in solution; assay type: physicochemical
[14] = B16, read-out: % Surviving Fraction, Light
[15] = CV-1, read-out: % Surviving Fraction, Light
[16] = 15 J cm^-2, source A (tungsten)
[17] = 50 J cm^-2, source A (tungsten)

In the case of CC(C)(C)C1=CC(=CC=Cc2cc(C(C)(C)C)[o+]c(C(C)(C)C)c2)C=C(C(C)(C)C)O1.[Cl-] [C.E. 3, 2,6-Di-t-butyl-4-[3-(2,6-di-t-butyl-4H-pyran-4-ylidene)-1-propen-1-yl]pyrylium chloride, reference compound], the viability at 1 µM ([1]; B16, B-16, 1 × 10^-6 M, 27 J cm^-2, source D (tungsten, 500 nm cutoff), read-out: % Surviving Fraction, Light) is reported as 99%, the viability at 1 µM [2] is reported as 99% and the “Quantum efficiency of singlet oxygen generation Φ(1O2)” value (“Quantum efficiency” below) [3] is reported as no more than 0.001. For the same molecule, the viability at 1 µM [4] was 99%, the viability at 1 µM ([5]; FADU, 1 × 10^-6 M, 27 J cm^-2, source D (tungsten, 500 nm cutoff)) was 99% and the “Absorption maximum λmax” value ([6]; H2O) was 595 nm. For the same molecule, the viability at 1 µM [7] was 100% and the viability at 1 µM ([8]; CV-1, CV1, 1 × 10^-6 M, 27 J cm^-2, source D (tungsten, 500 nm cutoff), read-out: % Surviving Fraction, Light) was 99%.

With CC(C)(C)C1=CC(=CC=Cc2cc(C(C)(C)C)[se+]c(C(C)(C)C)c2)C=C(C(C)(C)C)[Te]1 [Dye 1] the viability at 0.05 µM ([9]; HSK1, 5 × 10^-8 M) was 99%, the viability at 0.05 µM ([10]; HSK1, 5 × 10^-8 M, 15 J cm^-2, source C (diode laser 800 nm)) was 97% and the viability at 0.05 µM [1, 14] was 0.03%. The viability at 0.05 µM ([2]; B-16, 5 × 10^-8 M) was 99%, the “Quantum efficiency” value [3] was 0.09 and the viability at 0.05 µM ([4]; 5 × 10^-8 M) was 99%. For the same molecule, the viability at 0.05 µM ([5]; FaDu) was 0.1%, the “Absorption maximum λmax” value ([6]; CH2Cl2) was 786 nm and the viability at 0.05 µM ([7]; CV1, 5 × 10^-8 M) was 100%. For the same molecule, the viability at 0.05 µM [8, 15] was 99%, the viability at 0.05 µM ([11]; U251, 5 × 10^-8 M) was 85% and the viability at 0.05 µM ([12]; U251, 5 × 10^-8 M, 15 J cm^-2, source C (diode laser 800 nm)) was 65%.

In the case of CC(C)(C)C1=CC(=CC=Cc2cc(C(C)(C)C)[te+]c(C(C)(C)C)c2)C=C(C(C)(C)C)[Te]1 [Dye 4], the viability at 1 µM [1, 14] is reported as 30%, the viability at 1 µM [2] is reported as 99% and the “Quantum efficiency” value [3] is reported as 0.13. For the same molecule, the “Absorption maximum λmax” value ([6]; CH2Cl2) was 830 nm, the viability at 1 µM [7] was 99% and the viability at 1 µM [8, 15] was 95%. For the same molecule, the viability at 1 µM [11] was 100% and the viability at 1 µM ([12]; 50 J cm^-2, source B (dye laser 785 nm)) was 75%.

Molecule CC(C)(C)C1=CC(=CC=Cc2cc(C(C)(C)C)[o+]c(C(C)(C)C)c2)C=C(C(C)(C)C)[Te]1 [Dye 5] has a viability at 0.1 µM [9] of 99%, a viability at 0.1 µM [10, 16] of 99% and a viability at 0.1 µM [1, 14] of 0.1%. For the same molecule, the viability at 0.1 µM ([2]; B-16, 1 × 10^-7 M) was 99%, the “Quantum efficiency” value [3] was 0.06 and the viability at 0.1 µM ([4]; 1 × 10^-7 M) was 99%. The viability at 0.1 µM ([5]; FaDu) was 0.05%, the “Absorption maximum λmax” value ([6]; H2O) was 700 nm and the viability at 0.1 µM ([7]; CV1, 1 × 10^-7 M) was 100%. It also gave a viability at 0.1 µM [8, 15] of 99%, a viability at 0.1 µM [11] of 90% and a viability at 0.1 µM [12, 16] of 58%.

For CC(C)(C)C1=CC(=CC=Cc2cc(C(C)(C)C)[o+]c(C(C)(C)C)c2)C=C(C(C)(C)C)[Se]1 [Dye 9], the viability at 1 µM [1, 14] was 0.2%, the viability at 1 µM [2] was 99% and the “Quantum efficiency” value [3] was 0.005. For the same molecule, the viability at 1 µM [4] was 99%, the viability at 1 µM ([5]; FaDu) was 0.2% and the “Absorption maximum λmax” value ([6]; H2O) was 660 nm. The viability at 1 µM [7] was 100% and the viability at 1 µM [8, 15] was 99%.

For CC(C)(C)C1=CC(=Cc2cc(C(C)(C)C)[te+]c(C(C)(C)C)c2)C=C(C(C)(C)C)[Te]1 [Dye 12], the viability at 0.1 µM [9] was 100%, the viability at 0.1 µM [10, 17] was 99% and the “Quantum efficiency” value [3] was 0.07. The “Absorption maximum λmax” value ([6]; H2O) was 705 nm, the viability at 1 µM [11] was 55% and the viability at 0.1 µM [11] was 83%. For the same molecule, the viability at 1 µM [12, 17] was 1% and the viability at 0.1 µM [12, 17] was 74%.

For C(=CC=C1C=C(c2ccccc2)[Te]C(c2ccccc2)=C1)C=Cc1cc(-c2ccccc2)[te+]c(-c2ccccc2)c1 [Dye 16], the Stability in solution [13] was “tended to be unstable in solution”, the “Quantum efficiency” value [3] was 0.005 and the “Absorption maximum λmax” value ([6]; MeOH) was 1060 nm.
